{"source": "paper PMC10200060", "about": "“Inhibition of DAMP actions in the tumoral microenvironment using lactoferrin-glycyrrhizin conjugate for glioblastoma therapy” (Biomaterials Research, 2023)", "key": {"[1]": {"test": "GBM targeted-GL by HPLC in brain homogenate", "format": "in vivo, orthotopic GBM model mice", "details": "Balb/c nude, mouse, brain homogenate, iv; orthotopic GBM mice, i.v. GL equivalent 50 mg kg^−1, 10 min after injection; read-out: GL concentration detected in brain homogenate", "method": "Orthotopic GBM mice model mice were used for quantification of GBM targeting efficacy. The brain tissue was homogenized in deionized water at a 33.3 w/v (%) using a FastPrep-24 5G (MP biomedical, South Korea). The GL were added to pooled brain homogenate to obtain seven-point calibration curves with a range of 10–1000 ng mL^−1. Then, homogenate (50 μL) was mixed with methanol (100 μL). […] Thereafter, supernatants (100 μL) were mixed with mobile phase solution (900 μL), then filtered with a 0.22 μm syringe filter. Samples were collected in a 2 mL HPLC vial (Screw top vial, Waters, USA) and analyzed by HPLC at 254 nm. […] Mice were sacrificed and brain tissues were collected 10 min after the GL and Lf-GL injection. The samples for quantification were also conducted using the same process as GL standard preparation."}, "[2]": {"test_system": "orthotopic GBM (U87MG) mice model", "test": "TUNEL assay of GBM tissue", "format": "in vivo, Balb/c nude mice", "details": "daily i.v., 14 days (control 28.5 ± 4.8)", "from_the_text": "(§1) After two weeks, mice were sacrificed, and the brains were harvested and fixed with paraformaldehyde (4%). Then, tissue processing was automatically conducted using a Leica TP1020 semi-enclosed Benchtop Tissue Processor (Leica Biosystems, Wetzlar, Hesse, Germany), followed by embedding in paraffin blocks. Paraffin blocks were sliced into 5 μm thick slices using a Leica RM2145 Microtome (Leica Biosystems). Nissl staining was used to stain brain tissue slides with pre-warmed 0.1% Cresyl Violet Stain Solution (Abcam). TUNEL assays were conducted following the manufacturer’s instructions. For immunofluorescence staining; anti-HMGB1 antibody (Abcam), anti-Ki67 antibody (Abcam), anti-CD31 antibody (Abcam), and anti-VEGF antibody (Abcam) were used as primary antibodies, and goat anti-rabbit IgG-H&L Alexa Fluor 488 and goat anti-rabbit IgG H&L Alexa Fluor 647 were used as secondary antibodies, followed by DAPI mounting."}, "[3]": {"test": "In vivo fluorescence tracer image (brain)", "set-up": "species or system Balb/c mice", "details": "FITC-tagged", "method": "For the fluorescence tracer images, Balb/c mice were administered either FITC-tagged GL or FITC-tagged Lf-GL at a GL equivalent concentration of 50 mg kg^−1 body weight via tail vein injection. After 1, 10, 30, and 60 min, the experimental mice were sacrificed, and the organs were extracted. The fluorescence signals of FITC-tagged GL or FITC-tagged Lf-GL in organs were imaged using an in vivo imaging system (FOBI, CELLGENTEK, South Korea). The exposure time was fixed to 200 s for analyzing fluorescent signals from tissues. The quantified fluorescence signal of the brain at each time point was measured in terms of intensity units (IU, Intensity Min^−1 Gain^−1).\nFig. S15. Fluorescence tracer images of intravenously injected GL and Lf-GL. Balb/c mice were administered either FITC-tagged GL or FITC-tagged Lf-GL at a GL equivalent concentration of 50 mg kg^-1 body weight via tail vein injection. The fluorescence signals of FITC-tagged GL or FITC-tagged Lf-GL in organs were imaged using an in vivo imaging system (FOBI, CELLGENTEK, South Korea). The exposure time was fixed to 200 sec for analyzing fluorescent signals from tissues. The quantified fluorescence signal of brain at each time point was measured with Intensity Unit (IU, Intensity Min^-1 Gain^-1)."}, "[4]": {"test": "In vivo pharmacokinetics study"}, "HMGB1": {"test_system": "HMGB1", "test": "HUVEC co-cultured with U87MG: HMGB1 ELISA", "format": "cell-based, human", "details": "HUVEC/U87MG co-culture, 100 μM GL equivalent, 24 h (control 217.8 ± 5.9)", "method": "To evaluate the inhibitory effect of Lf-GL on neovascularization in the tumor microenvironment in vitro, U87MG cells were seeded in the Transwell® insert chambers that were 6.5 mm in diameter and had 0.4 μm pore sizes (seeding density: 2.5 × 10^4 cells per well, Corning). HUVECs were seeded in the Transwell basal chamber (seeding density: 5.0 × 10^4 cells per well). GL, Lf, or Lf-GL (100 × 10^–6 M of GL equivalent concentration) were added to the insert chamber, and cells were incubated for 24 h. CCK-8 assay and HMGB1 ELISA were conducted at the basal chamber."}, "HMGB1 box A": {"target": "HMGB1 box A", "set-up": "method as in PMID 17462578", "details": "previously reported; cited from earlier work"}, "[5]": {"test_system": "orthotopic GBM (U87MG) mice model", "test": "Nissl staining: GBM/normal brain ratio", "format": "in vivo, Balb/c nude mice", "details": "daily i.v. GL equivalent 50 mg kg^−1, 14 days (control 37.5 ± 2.3)", "from_the_text": "as §1"}, "[6]": {"details": "Balb/c, mouse, plasma, iv, 50 mg/kg"}}, "data": [{"smiles": "CC1(C)[C@@H](O[C@H]2O[C@H](C(=O)O)[C@@H](O)[C@H](O)[C@H]2O[C@@H]2O[C@H](C(=O)O)[C@@H](O)[C@H](O)[C@H]2O)CC[C@]2(C)[C@H]3C(=O)C=C4[C@@H]5C[C@@](C)(C(=O)O)CC[C@]5(C)CC[C@@]4(C)[C@]3(C)CC[C@@H]12", "note": "[GL, Glycyrrhizin]", "values": [{"measurement": "concentration at 10 min", "setting": "[1]", "result": "9.8 ± 2.3", "unit": "µg/mL"}, {"measurement": "TUNEL MFI", "setting": "[2]", "result": "16.3 ± 2.8"}, {"measurement": "Time up to which fluorescence signal was detected in the brain", "setting": "[3]; i.v. GL equivalent 50 mg kg^−1", "result": "≤ 10", "unit": "min"}, {"measurement": "Fluorescence intensity in the brain", "setting": "[3]; i.v. GL equivalent 50 mg kg^−1, 10 min after injection", "result": "7,914 I.U."}, {"measurement": "AUC(0-t)", "setting": "[4]; [6]", "result": 102, "unit": "µg·h/mL"}, {"measurement": "Cmax", "setting": "[4]; [6]", "result": "254 ± 117", "unit": "µg/mL"}, {"measurement": "MRT", "setting": "[4]; [6]", "result": 4.6, "unit": "min"}, {"measurement": "Tmax", "setting": "[4]; [6]", "result": 1, "unit": "min"}, {"measurement": "half-life", "setting": "[4]; Balb/c, mouse, plasma, iv, 50 mg/kg, T1/2, elimination half-life, mice, GL equivalent 50 mg kg^−1, plasma", "result": "~3.8", "unit": "min"}, {"measurement": "Time after administration until cleared from / remaining in circulation", "setting": "[4]; mice, i.v., GL equivalent 50 mg kg^−1", "result": 150, "unit": "min"}, {"measurement": "HMGB1 level in medium", "setting": "HMGB1", "result": "190.7 ± 19.0", "unit": "ng/mL"}, {"measurement": "Kd", "setting": "HMGB1 box A", "result": "170 ± 3", "unit": "µM"}, {"measurement": "GBM/normal brain ratio", "setting": "[5]", "result": "26.4 ± 5.7"}]}]}
